Test results: patent US11572508B2, “Non-linear surfactant” (Powdermet, Inc., priority 2018, dated 2023)

Assays:
[1] = pH-controlled solubility and rock-face adsorption of isoelectric surfactant; format: physicochemical
Text: An example of an isoelectric non-linear molecular surfactant is a modified rigid ring structure with a zwitterionic to control solubility and surface activity. Molecular surfactant is defined as a group of atoms bonded together, representing the smallest fundamental unit of a chemical compound. In one non-limiting descriptive example, cholic acid is bound to a zwitterionic bi-functional compound, such as threonine. One (1) equivalent of cholic acid is suspended in an aprotic polar solvent, tetrahydrofuran with the addition of a base catalysis, pyridine. The primed rigid ring moiety structure is titrated with one (1) to three (3) equivalents of a zwitterionic coupling agent, and/or silane threonine, in an aprotic polar solvent. Purified product has applications in surface modification chemistry across materials and production markets. One non-limiting identified application is the oil and gas industry's unconventional resource collections through improving production recovery by controlling the rock wettability and reducing the translation motion energy through rock porosity and fractures. The zwitterionic nature of the isoelectric non-linear molecular surfactant enables the production recovery increase by allowing the production team to control when the surfactant becomes insoluble and favors surface adsorption to the formation's porous and fracture surface. […]

[2] = emulsion suspension of liquid epoxy resin: particle size dispersion, suspension stability, pumping through sand packs; format: physicochemical; settings: 71 mM surfactant
Text: The suspension was maintained for up to 1 month unchanged.

pH at which surfactant is triggered to adsorb to the rock face ([1]; formation rock face) | pH at which surfactant is soluble in pumping solutions ([1]; pumping solutions) | Structure (SMILES) | time suspension was maintained unchanged ([2]; 23 wt. % solids epoxy resin suspension) | particle size dispersion D50 of nanoemulsion ([2]; 23 wt. % solids suspension of bisphenol A/epichlorohydrin-derived liquid epoxy resin)
5.6 | below 5.5 | CC(O)C(NC(=O)CCC(C)C1CCC2C3C(O)CC4CC(O)CCC4(C)C3CC(O)C12C)C(=O)O (stereo not shown) |  | 
 |  | C[C@H](CCC(=O)O)[C@H]1CC[C@H]2[C@@H]3[C@H](O)C[C@@H]4C[C@H](O)CC[C@]4(C)[C@H]3C[C@H](O)[C@]12C [3α,7α,12α-trihydroxy-5β-cholan-24-oic acid] | up to 1 month | 450 nm
